Three compounds from patent US20160101076A1, “Use of Sumoylation Inhibitors for Treating Cancer” (priority 2013, published 2016) can be followed below.

Assay [1] concerns sumoylated TFAP2A in BT549 cells. As to the kind of experiment: Sumoylation of TFAP2A in BT549 cells with peroxide / MG-132. In kind it is cell-based, human. On the procedure:
FIG. 15A-15B. Sumoylated TFAP2A in Basal Cells Induced with Peroxide. Sumoylation of TFAP2A was analyzed in the basal cell line BT549 with and without treatment with peroxide. FIG. 15A. BT549 cells co-transfected with vectors for TFAP2A and either SUMO-1, -2 or -3 and treated without or with peroxide, as indicated. […] Experiment in A was performed in the absence of the proteasome inhibitor MG-132. FIG. 15B. Similar experiments performed with MG-132 treatment either without or with peroxide.
Sumoylation in vitro was done using SUMOlink™ SUMO-1 Kit and SUMOlink™ SUMO-2/3 Kit (Carlsbad). SUMO plasmids and pcDNA3.1-TFAP2A or K10R mutant were used for in vitro protein production. MCF-7 were transfected for 48 hours with […] SUMO expressing plasmids (Feng et al., 2013) that were kindly provided by Dr Xiaolu Yang (University of Pennsylvania). As indicated in some experiments, the proteasome inhibitor MG132 was added as described (Chu and Yang, 2011).

The subject of a further assay is FREM2 and RET expression. As to the kind of experiment: Estrogen responsiveness of FREM2 expression, Tamoxifen treatment. In kind it is cell-based. The note with it: FIG. 11E.

Peptide text beside a SMILES is read from it. * marks the point of attachment. Cbz = O=C(OCc1ccccc1)*

On to `CC(C)C[C@@H](C=O)NC(=O)[C@H](CC(C)C)NC(=O)[C@H](CC(C)C)NC(=O)OCc1ccccc1` [MG-132] (Cbz-Leu-Leu-Leu-aldehyde), for which the “identification of the sumoylated forms of TFAP2A” value in assay [1] (BT549 cells, MG-132 treatment without or with peroxide, FIG. 15B) is reported as “enhanced identification”.

`CC/C(=C(\c1ccccc1)c1ccc(OCCN(C)C)cc1)c1ccccc1` [Tamoxifen]: in the assay on FREM2 and RET expression, the FREM2 expression result was “not estrogen responsive” and the RET expression entry is “appropriately repressed”.

Take `OO` [peroxide]: the “sumoylated TFAP2A” value in assay [1] (BT549 cells co-transfected with TFAP2A and SUMO-1, -2 or -3, with vs without peroxide, FIG. 15A) is “Induction”.
